Laboratory results as given in article doi:10.1101/2020.02.10.936898v1 (biorxiv, 2020).

The molecules below were run against SARS-CoV M^pro (Severe acute respiratory syndrome-related coronavirus, UniProt P0C6X7) (assay: biochemical).
Assay type: biochemical

Going from O=C(/C=C/c1ccccc1)N[C@@H](Cc1ccccc1)C(=O)N[C@@H](C[C@@H]1CCNC1=O)C(=O)C(=O)NCc1ccccc1 [11a, (S)-N-benzyl-3-((S)-2-cinnamamido-3-phenylpropanamido)-2-oxo-4-((S)-2-oxopyrrolidin-3-yl)butanamide] to O=C(/C=C/c1ccccc1)N[C@@H](Cc1ccc(F)cc1)C(=O)N[C@@H](C[C@@H]1CCNC1=O)C(=O)C(=O)NCc1ccccc1 [11m, (S)-N-benzyl-3-((S)-2-cinnamamido-3-(4-fluorophenyl)propanamido)-2-oxo-4-((S)-2-oxopyrrolidin-3-yl)butanamide], the IC50 rises from 1950 ± 240 nM to greater than 50000 nM. The first is the more potent here.

Going from CC(C)(C)OC(=O)N[C@@H](C[C@@H]1CCNC1=O)C(=O)C(=O)NCc1ccccc1 [11f, tert-Butyl ((S)-4-(benzylamino)-3,4-dioxo-1-((S)-2-oxopyrrolidin-3-yl)butan-2-yl)carbamate] to CC(C)C[C@H](NC(=O)/C=C/c1ccccc1)C(=O)N[C@@H](C[C@@H]1CCNC1=O)C(=O)C(=O)NCc1ccccc1 [11n, (S)-N-((S)-4-(benzylamino)-3,4-dioxo-1-((S)-2-oxopyrrolidin-3-yl)butan-2-yl)-2-cinnamamido-4-methylpentanamide], the IC50 falls from greater than 50000 nM to 330 ± 40 nM.

CCCC[C@H](NC(=O)/C=C/c1ccccc1)C(=O)N[C@@H](C[C@@H]1CCNC1=O)C(=O)C(=O)NCc1ccccc1 [11o, (S)-N-((S)-4-(benzylamino)-3,4-dioxo-1-((S)-2-oxopyrrolidin-3-yl)butan-2-yl)-2-cinnamamidohexanamide] and C#CC[C@H](NC(=O)/C=C/c1ccccc1)C(=O)N[C@@H](C[C@@H]1CCNC1=O)C(=O)C(=O)NCc1ccccc1 [11p, (S)-N-((S)-4-(benzylamino)-3,4-dioxo-1-((S)-2-oxopyrrolidin-3-yl)butan-2-yl)-2-cinnamamidopent-4-ynamide] are within error of each other in IC50: 8500 ± 3710 nM for the first, 10700 ± 7340 nM for the second.

Compared with O=C(/C=C/c1ccccc1)N[C@H](C(=O)N[C@@H](C[C@@H]1CCNC1=O)C(=O)C(=O)NCc1ccccc1)C1CC1 [11q, (S)-N-benzyl-3-((S)-2-cinnamamido-2-cyclopropylacetamido)-2-oxo-4-((S)-2-oxopyrrolidin-3-yl)butanamide], O=C(/C=C/c1ccccc1)N[C@@H](CC1CC1)C(=O)N[C@@H](C[C@@H]1CCNC1=O)C(=O)C(=O)NCc1ccccc1 [11s, (S)-N-benzyl-3-((S)-2-cinnamamido-3-cyclopropylpropanamido)-2-oxo-4-((S)-2-oxopyrrolidin-3-yl)butanamide] is 26-fold lower in IC50: 6270 ± 2870 nM for the first, 240 ± 80 nM for the second.

O=C(/C=C/c1ccccc1)N[C@@H](CC1CCCCC1)C(=O)N[C@@H](C[C@@H]1CCNC1=O)C(=O)C(=O)NCc1ccccc1 [11r, (S)-N-benzyl-3-((S)-2-cinnamamido-3-cyclohexylpropanamido)-2-oxo-4-((S)-2-oxopyrrolidin-3-yl)butanamide] and O=C(/C=C/c1ccccc1)N[C@@H](CC1CCCC1)C(=O)N[C@@H](C[C@@H]1CCNC1=O)C(=O)C(=O)NCc1ccccc1 [11u, (S)-N-benzyl-3-((S)-2-cinnamamido-3-cyclopentylpropanamido)-2-oxo-4-((S)-2-oxopyrrolidin-3-yl)butanamide] are within error of each other in IC50: 710 ± 360 nM for the first, 1270 ± 340 nM for the second.

O=C(/C=C/c1ccccc1)N[C@@H](CC1CCC1)C(=O)N[C@@H](C[C@@H]1CCNC1=O)C(=O)C(=O)NCc1ccccc1 [11t, (S)-N-benzyl-3-((S)-2-cinnamamido-3-cyclobutylpropanamido)-2-oxo-4-((S)-2-oxopyrrolidin-3-yl)butanamide] gave an IC50 of 1440 ± 400 nM.
